Columns and labels:
Rattus norvegicus [1] = assay: In vivo concentration required for the reduction of mean arterial pressure in anesthetized obstructed male rat, administered intravenously at a dose of 50 nM/Kg; format: functional, Artery
Rattus norvegicus [2] = assay: In vivo concentration required for the inhibition of unstable contraction in anesthetized obstructed male rat, administered intravenously at a dose of 30 nM/Kg; format: functional
[3] = Selectivity ratio for the reduction of mean arterial pressure to that of unstable […] in anesthetized obstructed male rat; format: functional, Artery
Rattus norvegicus [4] = assay: In vivo concentration required for the 10% reduction of mean arterial pressure in anesthetized obstructed male rat, administered intravenously at a dose of 50 nM/Kg; format: functional, Artery

SMILES	ED10 (Rattus norvegicus [1])	ED35 (Rattus norvegicus [2])	Selectivity ratio [3]	ED10 (Rattus norvegicus [4])
CCc1cc(C#N)ccc1Nc1c(N[C@H](C)C(C)(C)C)c(=O)c1=O	0.12 µM/kg	0.1 µM/kg	1.2	
CC(=O)Nc1c(C(O)(C(F)(F)F)C(F)(F)F)ccc2ccccc12		0.03 µM/kg	1.7	0.05 µM/kg
C[C@](O)(C(=O)Nc1ccc(C(=O)c2ccccc2)cc1)C(F)(F)F [ZD-6169]	1.5 µM/kg	1.4 µM/kg	1.1	

Reference: ChEMBL document CHEMBL1136389, “Structure-activity relationship of a novel class of naphthyl amide KATP channel openers” (Bioorg Med Chem Lett, 2003)
